The test system of data set [1] is human adipose-derived mesenchymal stem cells (AD-MSC).
Description: (§1) The aim was to analyze the cytotoxicity caused by the addition of Peptide-1 or Peptide-2 to human adipose-derived mesenchymal stem cells (AD-MSC) using the CCK-8 assay.
(§2) Specifically, AD-MSC cells were seeded in 96-well plates at a density of 1.5×10^3 cells/well and cultured in Dulbecco's Modified Eagle's Medium (DMEM) supplemented with 10% FBS for 24 hours. Then, the medium was replaced with DMEM medium supplemented with 5% FBS, and Peptide-1 or Peptide-2 was treated at different concentrations, respectively. Subsequently, the medium was replaced every 3 days and Peptide-1 or Peptide-2 was treated at different concentrations, respectively. To confirm CCK-8 activity, after 7 days, CCK-8 (Dojindo, CCK-8 kit) solution was added at 1/10 volume of the culture medium, and incubated for 2 hours. The culture medium was sampled and CCK-8 activity was confirmed at a wavelength of 450 nm using a microplate reader.
The test system is the same in data set [2]. The data set is described as follows: CCK-8 cytotoxicity assay in AD-MSC cells. The following applies: different concentrations, 7 days, absorbance 450 nm, FIG. 1, FIG. 2. A general note: Formazan colour is commonly taken as a measure of viable cells.
Description: as §1, §2

Read-outs that look alike come from different tables or passages of the source. Where no end group is shown, it is not given here.

This note sets out measurements from patent US20260200984A1, “PEPTIDE FOR CARTILAGE REGENERATION, AND USES THEREOF” (CAREGEN CO., LTD., priority 2022, published 2026).

Consider QSSLRALR [Peptide-2, QSSLRALR], for which the “toxicity toward adipose-derived mesenchymal stem cells (CCK-8 activity)” value in data set [1] is listed as “did not exhibit toxicity”.
Consider “SHIAGGLSFHSTV [Peptide-1, SHIAGGLSFHSTV]”, for which, in data set [2], the “toxicity toward adipose-derived mesenchymal stem cells (CCK-8 activity)” value is “did not exhibit toxicity”.
